The results in this text go back to ChEMBL document CHEMBL5608178, “Design and synthesis of 7-membered lactam fused hydroxypyridinones as potent metal binding pharmacophores (MBPs) for inhibiting influenza virus PAN endonuclease” (Eur J Med Chem, 2024).

The target of series [1] is Polymerase acidic protein (Influenza A virus (A/Puerto Rico/8/1934(H1N1))) (UniProt P03433). As to the kind of experiment: Inhibition of Influenza A virus N-terminal Polymerase acidic protein endonuclease activity in HEK293T cells transfected with IAV RNA polymerase complex and firefly/renilla luciferase reporter at 10 uM by […] Dual-Glo luciferase assay relative to control. Type of series: cell-based. (A reporter such as luciferase makes a cellular process visible.)

For series [2], the system named is Influenza A virus. As to the kind of experiment: Antiviral activity against Influenza A virus A/WSN/33, H1N1 infected in MDCK cells assessed as decrease in viral replication incubated for 72 hrs. The format is functional, organism-based. The note with it: A/WSN/33, H1N1, MDCK.
The target in series [3] is Polymerase acidic protein (Influenza A virus (A/Puerto Rico/8/1934(H1N1)), UniProt P03433). Briefly: Inhibition of Influenza A virus N-terminal Polymerase acidic protein endonuclease activity in HEK293T cells transfected with IAV RNA polymerase complex and firefly/renilla luciferase reporter by […] Dual-Glo luciferase assay. The format is cell-based.
Series [4] can be described thus: Cytotoxicity against MDCK cells assessed as decrease in survival rate. The format is toxicity, cell-based, Canis lupus familiaris. Particulars: dog.
For series [5], the system named is Influenza A virus. As to the kind of experiment: Antiviral activity against Influenza A virus A/WSN/33, H1N1 infected in MDCK cells assessed as suppression of viral titer at 3 uM incubated for 72 hrs relative to control. Type of series: functional.

In series [1], `O=C1N[C@H](Cc2ccccc2)CN(C2c3ccccc3CCc3ccccc32)n2ccc(=O)c(O)c21` had an inhibition of 49.5%. On to `O=C1c2c(O)c(=O)ccn2N(C2c3ccccc3CCc3ccccc32)C[C@H]2CCCN12`, for which the EC50 in the series with Influenza A virus [2] is 0.724 µM. Besides, the IC50 in series [3] was determined as 2.87 µM. In addition, in series [4], the CC50 came to 34.3 µM. The same compound came in with an inhibition in series [1] of 81.1%. As for `C[C@H]1CN(C2c3ccccc3CCc3ccccc32)n2ccc(=O)c(O)c2C(=O)N1`, in series [1], the inhibition came out at 37.6%. As for `O=C1c2c(O)c(=O)ccn2N(C2c3ccccc3SCc3c2ccc(F)c3F)C[C@H]2CCCN12` (stereo not given in full), in the series with Influenza A virus [2], the EC50 was 0.421 µM. In addition, the IC50 in series [3] was determined as 0.082 µM. The CC50 in series [4] was found to be 29.6 µM. Further, the Activity with Influenza A virus [5] is reported as 99.9%. For the same compound, the inhibition in series [1] is 99.6%.

Compound `O=C1c2c(O)c(=O)ccn2N(C(c2ccccc2)c2ccccc2)C[C@H]2CCCN12` had an inhibition in series [1] of 48.2%.

On to `O=C1c2c(O)c(=O)ccn2N(C2c3ccccc3C=Cc3ccccc32)C[C@H]2CCCN12`, for which the EC50 with Influenza A virus [2] came to 0.292 µM. Moreover, inhibition in series [3] was half-maximal at 0.437 µM (IC50). The CC50 in series [4] was found to be 62.9 µM. In addition, the Activity in the series with Influenza A virus [5] is listed as 82.2%. This compound displayed an inhibition in series [1] of 91.9%.

As to `O=C1c2c(O)c(=O)ccn2N([C@@H]2c3ccccc3SCc3c2ccc(F)c3F)[C@@H]2COCCN12` [BALOXAVIR], the half-maximal effective concentration (EC50) in the series with Influenza A virus [2] came to 0.001 µM. Besides, the IC50 in series [3] stood at 0.001 µM. Also, in series [4], the CC50 was 28.8 µM. The compound further had an inhibition in series [1] of 99%. Turning to `O=C1N[C@H](c2ccccc2)CN(C2c3ccccc3CCc3ccccc32)n2ccc(=O)c(O)c21`, the inhibition in series [1] worked out at 31.6%. Still for that read-out and setting: with `O=C1c2c(O)c(=O)ccn2N(C2c3ccccc3CCc3ccccc32)C[C@@H]2CCCN12` the figure was 68.2%; with `O=C1N[C@@H](Cc2ccccc2)CN(C2c3ccccc3CCc3ccccc32)n2ccc(=O)c(O)c21`, 49%; with `CC(C)[C@H]1CN(C2c3ccccc3CCc3ccccc32)n2ccc(=O)c(O)c2C(=O)N1`, 31%. On the same count and under the same terms, with `O=C1c2c(O)c(=O)ccn2N(C2c3ccccc3CCc3ccccc32)C[C@@H]2CCCCN12` the figure was 36.5%. The compound `CC(C)C[C@H]1CN(C2c3ccccc3CCc3ccccc32)n2ccc(=O)c(O)c2C(=O)N1` returned an inhibition in series [1] of 22.4%. Still for that read-out and setting: the same measure for `O=C1NC2(CCCC2)CN(C2c3ccccc3CCc3ccccc32)n2ccc(=O)c(O)c21`: 9.2%. The same measure, in the same setting: with `O=C1c2c(O)c(=O)ccn2N(C2c3ccccc3CCc3ccccc32)C[C@H]2CCCCN12` the figure was 66.9%; with `C[C@@H]1CN(C2c3ccccc3CCc3ccccc32)n2ccc(=O)c(O)c2C(=O)N1`, 75.3%; with `CC(C)C[C@@H]1CN(C2c3ccccc3CCc3ccccc32)n2ccc(=O)c(O)c2C(=O)N1`, 56.4%. For `O=C1c2c(O)c(=O)ccn2N([C@@H]2c3ccccc3SCc3c2ccc(F)c3F)C[C@H]2CCCN12`, the EC50 in the series with Influenza A virus [2] amounted to 0.134 µM. Further, it took 0.045 µM to reach half-maximal inhibition in series [3] (IC50). Besides, in series [4], the CC50 was found to be 15.3 µM.

For `CSCC[C@H]1CN(C2c3ccccc3CCc3ccccc32)n2ccc(=O)c(O)c2C(=O)N1`, the inhibition in series [1] turned out to be 30.5%. With `O=C1c2c(O)c(=O)ccn2N([C@H]2c3ccccc3SCc3c2ccc(F)c3F)C[C@H]2CCCN12`, the EC50 with Influenza A virus [2] worked out at 2.88 µM. Further, in series [3], the IC50 was determined as 0.231 µM. Further, in series [4], the CC50 came to 98.5 µM.

With `O=C1c2c(O)c(=O)ccn2N(C(c2ccc(F)cc2)c2ccc(F)cc2)C[C@H]2CCCN12`, the inhibition in series [1] is 50.1%.

`CSCC[C@@H]1CN(C2c3ccccc3CCc3ccccc32)n2ccc(=O)c(O)c2C(=O)N1`: in series [1], the inhibition is 64.2%.

For orientation: inhibition means the relative decrease from the control value, in per cent. Lower therefore signals a response near the control. As a reminder, the EC50 is the concentration at which the effect is half-maximal. The IC50 is the concentration at which inhibition is half-maximal. A high value points to a need for much substance. As usually defined, the CC50 is the concentration that lowers cell viability or growth by half.
